From patent US10508085B2, “Compounds and methods for IDO and TDO modulation, and indications therefor” (Plexxikon Inc., priority 2016, dated 2019)

Experiments:
[1] = biological target: T1, Human Tryptophan 2,3-dioxygenase (TDO) (Homo sapiens, UniProt P48775); assay: Human TDO enzymatic assay (kynurenine level); format: biochemical; settings: 1 nM TDO, 350 μM L-Trp; geometric mean; read-out: TDO GMean: IC50 (μM) (Biochemical Assay)
T1 construct: His tag (N); made in house; host or cells: E. coli
How it was run: (§1)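 IDO conditions: 6 nM His-IDO, 10 μM L-Trp, 5 μM methylene blue, 20 min, RT. TDO conditions: 1 nM His-TDO, 350 μM L-Trp, 0.4 μM methylene blue, 70 min, RT. Both used pH 6.5 phosphate plus ascorbate/catalase, TCA stop at 50° C, kynurenine readout, nonlinear-regression IC50.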

[2] = biological target: T2, human IDO (IDO1-expressing HEK293 cells) (Homo sapiens, UniProt P14902); assay: Cell based kynurenine assay, IDO1-expressing HEK293 cell clones; settings: IDO1-expressing HEK293 cells, 24 hours incubation; geometric mean; read-out: HEK293 IDO1 Kynurenine GMean IC50 (μM) (Cellular Assay)
T2 construct: expressed in transfected cells
How it was run: (§2)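 Supernatant kynurenine was measured after 24 h exposure of stably transfected HEK293 cells (human IDO1 or TDO, 2.5×10^4/well) to serially diluted compound. Percent inhibition used 0.2% DMSO cell wells as high and media-only wells as low controls; IC50 fitted by nonlinear regression.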

[3] = biological target: T3, human TDO (TDO-expressing HEK293 cells) (Homo sapiens, UniProt P48775); assay: Cell based kynurenine assay, TDO-expressing HEK293 cell clones; settings: TDO-expressing HEK293 cells, 24 hours incubation; geometric mean; read-out: HEK293 TDO Kynurenine GMean IC50 (μM) (Cellular Assay)
T3 construct: expressed in transfected cells
How it was run: as §2

[4] = biological target: T4, Human Indoleamine 2,3-dioxygenase (IDO) (Homo sapiens, UniProt P14902); assay: Human IDO enzymatic assay (kynurenine level); format: biochemical; settings: 6 nM IDO, 10 μM L-Trp; geometric mean; read-out: IDO1 GMean: IC50 (μM) (Biochemical Assay)
T4 construct: His tag (N); made in house; host or cells: E. coli
How it was run: as §1

T2 sequence (P14902 whole entry): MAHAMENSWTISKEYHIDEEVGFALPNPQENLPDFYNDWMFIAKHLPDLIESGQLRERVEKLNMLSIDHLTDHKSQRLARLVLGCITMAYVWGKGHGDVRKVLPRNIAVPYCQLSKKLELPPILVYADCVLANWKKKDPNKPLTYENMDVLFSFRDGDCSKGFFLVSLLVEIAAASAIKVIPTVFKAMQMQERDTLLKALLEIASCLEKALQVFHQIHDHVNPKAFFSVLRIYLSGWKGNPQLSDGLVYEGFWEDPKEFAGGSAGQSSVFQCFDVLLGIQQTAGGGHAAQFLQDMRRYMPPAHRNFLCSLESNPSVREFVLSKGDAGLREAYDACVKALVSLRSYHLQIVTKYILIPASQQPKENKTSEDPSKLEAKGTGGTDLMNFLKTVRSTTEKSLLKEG
T4 sequence (P14902 whole entry): as above
T1 sequence (P48775 whole entry): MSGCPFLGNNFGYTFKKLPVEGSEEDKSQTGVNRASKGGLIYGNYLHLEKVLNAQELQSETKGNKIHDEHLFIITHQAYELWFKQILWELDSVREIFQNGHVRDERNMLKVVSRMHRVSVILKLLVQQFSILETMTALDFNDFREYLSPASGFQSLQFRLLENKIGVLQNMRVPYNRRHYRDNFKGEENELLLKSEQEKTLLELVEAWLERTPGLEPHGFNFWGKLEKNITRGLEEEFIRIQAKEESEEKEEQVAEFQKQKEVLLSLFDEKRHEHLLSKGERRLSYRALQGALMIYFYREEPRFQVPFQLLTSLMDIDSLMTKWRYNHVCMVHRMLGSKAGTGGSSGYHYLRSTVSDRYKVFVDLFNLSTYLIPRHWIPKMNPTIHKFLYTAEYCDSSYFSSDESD
T3 sequence (P48775 whole entry): as above

Row | Structure (SMILES) | IC50 [1] | IC50 [2] | IC50 [3] | IC50 [4]
1 | CC(=O)N1C[C@H]2CC[C@@H](C1)[C@H]2C(F)(F)C(O)c1c(F)c(Cl)cc2cn[nH]c12 (stereo partly drawn) [Compound P-0138, 1-((1R,5S,8s)-8-(2-(5-chloro-6-fluoro-1H-indazol-7-yl)-1,1-difluoro-2-hydroxyethyl)-3-azabicyclo[3.2.l]octan-3-yl)ethan-l-one] | 0.0001 to 10 µM | 0.0001 to 10 µM | 0.0001 to 10 µM | 0.0001 to 10 µM
2 | CC(=O)N1C[C@H]2CC[C@@H](C1)[C@@H]2C(F)(F)C(O)c1c(F)c(Cl)cc2cn[nH]c12 (stereo partly drawn) [Compound P-0139, 1-((1R,5S,8r)-8-(2-(5-chloro-6-fluoro-1H-indazol-7-yl)-1,1-difluoro-2-hydroxyethyl)-3-azabicyclo[3.2.l]octan-3-yl)ethan-l-one] | 0.0001 to 10 µM | 0.0001 to 10 µM | 0.0001 to 10 µM | 0.0001 to 10 µM
3 | COC(=O)N1CCC(C(F)(F)C(O)c2cc(Cl)cc3cn[nH]c23)CC1 (centres unmarked) [Compound P-0141, methyl 4-(2-(5-chloro-1H-indazol-7-yl)-1,1-difluoro-2-hydroxyethyl)piperidine-1-carboxylate] | 0.0001 to 10 µM | 0.0001 to 10 µM | 0.0001 to 10 µM | 0.0001 to 10 µM
4 | CNC(=O)N1CCC(C(F)(F)C(O)c2cc(Cl)cc3cn[nH]c23)CC1 (centres unmarked) [Compound P-0142, 4-(2-(5-chloro-1H-indazol-7-yl)-1,1-difluoro-hydroxyethyl)-N-methylpiperidine-1-carboxamide] | 0.0001 to 10 µM | 0.0001 to 10 µM | 0.0001 to 10 µM | 0.0001 to 10 µM
5 | O=C(C1CC1)N1CCC(C(F)(F)C(O)c2cc(Cl)cc3cn[nH]c23)CC1 (centres unmarked) [Compound P-0143, (4-(2-(5-chloro-1H-indazol-7-yl)-1,1-difluoro-2-hydroxyethyl)piperidin-1-yl)(cyclopropyl)methanone] | 0.0001 to 10 µM | 0.0001 to 10 µM | 0.0001 to 10 µM | 0.0001 to 10 µM
6 | NC(=O)N1CCC(C(F)(F)C(O)c2cc(Cl)cc3cn[nH]c23)CC1 (centres unmarked) [Compound P-0144, 4-(2-(5-chloro-1H-indazol-7-yl)-1,1-difluoro-2-hydroxyethyl)piperidine-1-carboxamide] | 0.0001 to 10 µM | 0.0001 to 10 µM | 0.0001 to 10 µM | 0.0001 to 10 µM
7 | CC1(C(O)c2cc(Cl)cc3[nH]ncc23)CCCCC1 (centres unmarked) [Compound P-0145, (6-chloro-1H-indazol-4-yl)(1-methylcyclohexyl)methanol] | 0.0001 to 10 µM | > 10 µM | 0.0001 to 10 µM | 0.0001 to 10 µM
8 | OC(c1cc(Cl)cc2[nH]ncc12)C12CCC(CC1)CC2 (centres unmarked) [Compound P-0146, bicyclo[2.2.2]octan-1-yl(6-chloro-1H-indazol-4-yl)methanol] | 0.0001 to 10 µM | > 10 µM | 0.0001 to 10 µM | 0.0001 to 10 µM
9 | CCC(=O)N1CCC(C(F)(F)C(O)c2cc(Cl)cc3cn[nH]c23)CC1 (stereo not drawn) [Compound P-0147, 1-(4-(2-(5-chloro-1H-indazol-7-yl)-1,1-difluoro-2-hydroxyethyl)piperidin-1-yl)propan-l-one] | 0.0001 to 10 µM | 0.0001 to 10 µM | 0.0001 to 10 µM | 0.0001 to 10 µM
10 | CC(C)CC(=O)N1CCC(C(F)(F)C(O)c2cc(Cl)cc3cn[nH]c23)CC1 (stereo not drawn) [Compound P-0148, 1-(4-(2-(5-chloro-1H-indazol-7-yl)-1,1-difluoro-2-hydroxyethyl)piperidin-l-yl)-3-methylbutan-1-one] | 0.0001 to 10 µM | 0.0001 to 10 µM | 0.0001 to 10 µM | 0.0001 to 10 µM
11 | O=C(CC1CC1)N1CCC(C(F)(F)C(O)c2cc(Cl)cc3cn[nH]c23)CC1 (stereo not drawn) [Compound P-0149, 1-(4-(2-(5-chloro-1H-indazol-7-yl)-1,1-difluoro-2-hydroxyethyl)piperidin-l-yl)-2-cyclopropylethan-1-one] | 0.0001 to 10 µM | 0.0001 to 10 µM | 0.0001 to 10 µM | 0.0001 to 10 µM
12 | O=C(Nc1ccccc1)N1CCC(C(F)(F)C(O)c2cc(Cl)cc3cn[nH]c23)CC1 (centres unmarked) [Compound P-0150, 4-(2-(5-chloro-1H-indazol-7-yl)-1,1-difluoro-2-hydroxyethyl)-N-phenylpiperidine-1-carboxamide] | 0.0001 to 10 µM | 0.0001 to 10 µM | 0.0001 to 10 µM | 0.0001 to 10 µM
13 | O=C(Nc1ccc(F)cc1)N1CCC(C(F)(F)C(O)c2cc(Cl)cc3cn[nH]c23)CC1 (centres unmarked) [Compound P-0151, 4-(2-(5-chloro-1H-indazol-7-yl)-1,1-difluoro-2-hydroxyethyl)-N-(4-fluorophenyl)piperidine-1-carboxamide] | 0.0001 to 10 µM | 0.0001 to 10 µM | 0.0001 to 10 µM | 0.0001 to 10 µM

Further lines, results first:

Row | IC50 [1] | IC50 [2] | IC50 [3] | IC50 [4] | Structure (SMILES)
14 | 0.0001 to 10 µM | 0.0001 to 10 µM | 0.0001 to 10 µM | 0.0001 to 10 µM | CCCC1(C(O)c2cc(Cl)cc3cn[nH]c23)CCC1 (centres unmarked) [Compound P-0121, (5-chloro-1H-indazol-7-yl)(1-propylcyclobutyl)methanol]
15 | 0.0001 to 10 µM | 0.0001 to 10 µM | 0.0001 to 10 µM | 0.0001 to 10 µM | CC1(C(O)c2c(F)c(Cl)c(F)c3cn[nH]c23)CCCCC1 (centres unmarked) [Compound P-0123, (5-chloro-4,6-difluoro-1H-indazol-7-yl)(1-methylcyclohexyl)methanol]
16 | 0.0001 to 10 µM | 0.0001 to 10 µM | 0.0001 to 10 µM | 0.0001 to 10 µM | CNC(=O)N1CC2CCC(C1)C2CC(O)c1cc(Cl)cc2cn[nH]c12 (centres unmarked) [Compound P-0127, 8-(2-(5-chloro-1H-indazol-7-yl)-2-hydroxyethyl)-N-methyl-3-azabicyclo[3.2.l]octane-3-carboxamide]
17 | 0.0001 to 10 µM | 0.0001 to 10 µM | 0.0001 to 10 µM | 0.0001 to 10 µM | CC(=O)N1CCC(C(F)(F)C(O)c2c(F)c(Cl)cc3cn[nH]c23)CC1 (stereo not drawn) [Compound P-0128, 1-(4-(2-(5-chloro-6-fluoro-1H-indazol-7-yl)-1,1-difluoro-2-hydroxyethyl)piperidin-1-yl)ethan-l-one]
18 | 0.0001 to 10 µM | 0.0001 to 10 µM | 0.0001 to 10 µM | 0.0001 to 10 µM | CC(=O)N1CCC(C(F)(F)C(O)c2c3c(cc4cn[nH]c24)CC3)CC1 (stereo not drawn) [Compound P-0129, 1-(4-(2-(5,6-dihydro-1H-cyclobuta[f]indazol-7-yl)-1,1-difluoro-2-hydroxyethyl)piperidin-1-yl)ethan-l-one]
19 | 0.0001 to 10 µM | 0.0001 to 10 µM | 0.0001 to 10 µM | 0.0001 to 10 µM | CC(=O)N1CCC(C2(C(O)c3cc(Cl)cc4cn[nH]c34)CC2)CC1 (stereo not drawn) [Compound P-0130, 1-(4-(1-((5-chloro-1H-indazol-7-yl)(hydroxy)methyl)cyclopropyl)piperidin-1-yl)ethan-l-one]
20 | 0.0001 to 10 µM | 0.0001 to 10 µM | 0.0001 to 10 µM | 0.0001 to 10 µM | CS(=O)(=O)N1C[C@H]2CC[C@@H](C1)[C@H]2C(F)(F)C(O)c1cc(Cl)cc2cn[nH]c12 (stereo partly drawn) [Compound P-0131, 1-(5-chloro-1H-indazol-7-yl)-2,2-difluoro-2-((1R,5S,8s)-3-(methylsulfonyl)-3-azabicyclo[3.2.l]octan-8-yl)ethan-l-ol]
21 | 0.0001 to 10 µM | 0.0001 to 10 µM | 0.0001 to 10 µM | 0.0001 to 10 µM | CS(=O)(=O)N1C[C@H]2CC[C@@H](C1)[C@@H]2C(F)(F)C(O)c1cc(Cl)cc2cn[nH]c12 (stereo partly drawn) [Compound P-0132, 1-(5-chloro-1H-indazol-7-yl)-2,2-difluoro-2-((1R,5S,8r)-3-(methylsulfonyl)-3-azabicyclo[3.2.l]octan-8-yl)ethan-l-ol]
22 | 0.0001 to 10 µM | 0.0001 to 10 µM | 0.0001 to 10 µM | 0.0001 to 10 µM | OC(c1cc(Cl)cc2cn[nH]c12)C12CCC(O)(CC1)CC2 (centres unmarked) [Compound P-0133, 4-((5-chloro-1H-indazol-7-yl)(hydroxy)methyl)bicyclo[2.2.2]octan-1-ol]
23 | 0.0001 to 10 µM | 0.0001 to 10 µM | 0.0001 to 10 µM | 0.0001 to 10 µM | CNC(=O)N1CCC(C2(C(O)c3cc(Cl)cc4cn[nH]c34)CC2)CC1 (centres unmarked) [Compound P-0134, 4-(1-((5-chloro-1H-indazol-7-yl)(hydroxy)methyl)cyclopropyl)-N-methylpiperidine-1-carboxamide]
24 | 0.0001 to 10 µM | 0.0001 to 10 µM | 0.0001 to 10 µM | 0.0001 to 10 µM | OC(c1cc(Cl)c(F)c2cn[nH]c12)C12CCC(CC1)CC2 (centres unmarked) [Compound P-0135, bicyclo[2.2.2]octan-1-yl(5-chloro-4-fluoro-1H-indazol-7-yl)methanol]
25 | 0.0001 to 10 µM | 0.0001 to 10 µM | 0.0001 to 10 µM | 0.0001 to 10 µM | COC12CCC(C(O)c3cc(Cl)cc4cn[nH]c34)(CC1)CC2 (centres unmarked) [Compound P-0136, (5-chloro-1H-indazol-7-yl)(4-methoxybicyclo[2.2.2]octan-1-yl)methanol]
26 | 0.0001 to 10 µM | 0.0001 to 10 µM | 0.0001 to 10 µM | 0.0001 to 10 µM | COC12CCC(C(O)c3c(F)c(Cl)cc4cn[nH]c34)(CC1)CC2 (centres unmarked) [Compound P-0137, (5-chloro-6-fluoro-1H-indazol-7-yl)(4-methoxybicyclo[2.2.2]octan-1-yl)methanol]
